Publication PMC6270171, “In Vitro and In Vivo Antiangiogenic Activity of Caged Polyprenylated Xanthones Isolated from Garcinia hanburyi Hook. f” (Molecules, 2013)
Where two headings read alike, the source gives them in different places.

Key:
[1] = test system: zebrafish embryos; assay: Heart rates of treated zebrafish embryos; type: in vivo, zebrafish (Danio rerio)
[2] = test system: HepG-2; assay: MTT cytotoxicity assay, HepG-2; type: cell-based; settings: Homo sapiens
Method: (§1) The xanthones 1–11 were tested for cytotoxicity against HeLa, A549, HCT-116, and HepG-2 human cancer cell lines and inhibition on the proliferation of the HUVEC cell line by using the MTT assay according to the described protocols.

[3] = test system: HeLa; assay: MTT cytotoxicity assay, HeLa; type: cell-based; settings: Homo sapiens, read-out: IC50 HeLa
Method: as §1

[4] = test system: zebrafish embryos; assay: Death rates of treated zebrafish embryos; type: in vivo, zebrafish (Danio rerio); settings: for Death Rate: eight embryos per well, control 0
Method: (§2) A transgenic zebrafish line, Tg(flk1:EGFP), with the endothelial- specific flk1 promoter directing enhanced green fluorescent protein (EGFP) expression in all endothelial cells of the vasculature was used. Adult zebrafish were maintained at 28.5 °C in a recirculating aquaculture system. Zebrafish embryos were generated by natural pair-wise mating, collected in the morning and raised at 28.5 °C in embryo water (0.2 g/L of Instant Ocean Salt in distilled water). At 6 h post-fertilization (hpf), the embryos were sorted for viability and developmental stage (shield stage). The embryos were firstly placed in 24-well plates in 1 mL of embryo water with eight embryos per well. Then, the xanthones, at various concentrations, were added to embryo water of each well from the shield stage (about 6 h). Because the fish embryo receives nourishment from an attached yolk ball for the duration of the experiment, no additional maintenance was required during the duration of the experiments. After treatment with the drugs for 24 h, the embryos were anesthetized with 0.05% 2-phenoxyethanol in embryo water. One to three embryos were placed on carry sheet glass and each embryo was examined for the presence of ectopic vessels in the subintestinal vessel plexus (SIV) as an indication of antiangiogenic effect. Photographs were taken under a fluorescence microscope.

[5] = test system: A549; assay: MTT cytotoxicity assay, A549; type: cell-based; settings: Homo sapiens
Method: as §1

[6] = test system: HUVEC cell line; assay: MTT assay, inhibition of proliferation of HUVEC cell line; type: cell-based; settings: Homo sapiens, read-out: IC50 HUVEC
Method: as §1

[7] = test system: HCT-116; assay: MTT cytotoxicity assay, HCT-116; type: cell-based; settings: Homo sapiens
Method: as §1

[8] = test system: zebrafish embryos Tg(flk1:EGFP); assay: Antiangiogenic activity assay on blood vessel formation in zebrafish embryos; type: in vivo, zebrafish (Danio rerio); settings: for Antiangiogenic activity to zebrafish embryos: concentrations varying from 1 μM to 16 μM; for Concentration with inhibitory effect on ISV formation (Figure 2): zebrafish embryos, 24 h, effects of 3, 7, 9 comparable to GA
Method: as §2

[9] = test system: HUVEC; assay: HUVEC wound migration assay; type: cell-based, human; settings: 0.5 μM, 24 h
Method: The wound migration assay was performed as previously described. HUVECs were seeded at a plating density of 2 × 10^5 per well in 6-well plates which had been coated with 1% gelatin, cells grown in DMEM medium with 10% FBS overnight. After reaching 100% confluence, the cells were then gently scraped with a plastic tip to produce a wound area. After wounding cells were incubated with fresh DMEM medium with xanthones 1, 3, 7 and 9 at a concentration of 0.5 μM, the migration and cell movement throughout the wound area was examined after 24 h.

[10] = Tg(flk1:EGFP), zebrafish, in vivo, 24 h, 8 μM
[11] = Tg(flk1:EGFP), zebrafish, in vivo, 24 h, 16 μM
[12] = Tg(flk1:EGFP), zebrafish, in vivo, 24 h, 32 μM
[13] = HepG2, MTT assay, 50% inhibition of cell growth, read-out: IC50 HepG-2
[14] = MTT assay, 50% inhibition of cell growth
[15] = A549, MTT assay, 50% inhibition of cell growth, read-out: IC50 A549
[16] = HCT-116, MTT assay, 50% inhibition of cell growth, read-out: IC50 HCT-116
[17] = 1 μM, zebrafish embryos, control 21 per 10 s
[18] = 2 μM, zebrafish embryos, control 21 per 10 s
[19] = 4 μM, zebrafish embryos, control 21 per 10 s
[20] = Tg(flk1:EGFP), zebrafish, in vivo, 24 h, 2 μM
[21] = Tg(flk1:EGFP), zebrafish, in vivo, 24 h, 4 μM
[22] = 8 μM, zebrafish embryos, control 21 per 10 s
[23] = HCT-116, read-out: IC50 HCT-116

Row | SMILES | Heart Rate [1, 10] | IC50 [2, 13] | IC50 [3, 14] | Death Rate ([4]; 8 μM) | IC50 [5, 15] | IC50 [6, 14] | IC50 [7, 16] | Heart Rate [1, 17] | Heart Rate [1, 18] | Heart Rate [1, 19] | Death Rate ([4]; 1 μM) | Death Rate ([4]; 2 μM) | Death Rate ([4]; 4 μM) | Heart Rate [1, 20] | Heart Rate [1, 21] | Heart Rate [1, 22] | IC50 ([2]; HepG2, read-out: IC50 HepG-2) | IC50 [3] | IC50 ([5]; A549, read-out: IC50 A549) | IC50 [6] | further results
1 | CC(C)=CCC/C(C)=C/Cc1c(O)c(CC=C(C)C)c2c(c1O)C(=O)C1=C[C@@H]3C[C@H]4C(C)(C)O[C@@](C/C=C(\C)C=O)(C3=O)[C@@]14O2 [Xanthone 6, isogambogenin] | 17 per 10 s | 2.44 µM | 4.07 µM | 0 | 4.88 µM | 2.12 µM | 1.47 µM |  |  |  |  |  |  |  |  |  |  |  |  |  | Heart Rate [1, 11]: 14 per 10 s; Heart Rate [1, 12]: 8 per 10 s; Death Rate ([4]; 16 μM): 1/8; Death Rate ([4]; 32 μM): 4/8
2 | CC(C)=CCC/C(C)=C/Cc1c(O)c(CC=C(C)C)c2c(c1O)C(=O)C1=C[C@@H]3C[C@H]4C(C)(C)O[C@@](C/C=C(/C)C=O)(C3=O)[C@@]14O2 [Xanthone 7, gambogenin] | 6 per 10 s | 6.51 µM | 3.26 µM | 0 | 4.88 µM | 1.04 µM | 1.3 µM |  |  |  |  |  |  |  |  |  |  |  |  |  | Heart Rate [1, 11]: 6 per 10 s; Heart Rate [1, 12]: 5 per 10 s; Antiangiogenic activity to zebrafish embryos [8]: displayed antiangiogenic activity; Concentration with inhibitory effect on ISV formation (Figure 2) [8]: 32 µM; Inhibition of the migration of HUVEC [9]: remarkable inhibition
3 | CC(C)=CCC/C(C)=C/Cc1c(O)c(CC=C(C)C)c2c(c1O)C(=O)C1=C[C@@H]3C[C@H]4C(C)(C)O[C@@](C/C=C(/C)C(=O)O)(C3=O)[C@@]14O2 [Xanthone 2, gambogenic acid] |  | 6.35 µM | 11.5 µM |  | 4.76 µM | 4.12 µM | 4.76 µM | 21 per 10 s | 18 per 10 s | 0 per 10 s | 0 | 0 | 8/8 |  |  |  |  |  |  |  | 
4 | CC(C)=CCc1c2c(c(O)c3c1O[C@]14C(=C[C@@H]5C[C@H]1C(C)(C)O[C@@]4(C/C=C(/C)C=O)C5=O)C3=O)C=CC(C)(C)O2 [Xanthone 5, morellin isomers] | 8 per 10 s | 5.97 µM | 5.33 µM | 8/8 | 6.43 µM | 2.39 µM | 2.76 µM |  |  |  |  | 0 | 0 | 13 per 10 s | 10 per 10 s |  |  |  |  |  | 
5 | CC(C)=CCC/C(C)=C/Cc1c(O)c(CC=C(C)C)c2c(c1O)C(=O)C1=C[C@@H]3C[C@H]4C(C)(C)O[C@@](CC=C(C)C)(C3=O)[C@@]14O2 [Xanthone 11, desoxygambogenin] |  |  |  | 0 |  |  |  | 21 per 10 s | 21 per 10 s | 21 per 10 s | 0 | 0 | 0 |  |  | 20 per 10 s | 1.15 µM | 2.95 µM | 1.8 µM | 1.6 µM | IC50 [7, 23]: 1.35 µM
6 | CC(C)=CCc1c2c(c(O)c3c1O[C@]14C(=C[C@@H]5C[C@H]1C(C)(C)O[C@@]4(C/C=C(/C)C(=O)O)C5=O)C3=O)C=CC(C)(C)O2 [Xanthone 3, morellic acid] |  |  |  | 8/8 |  |  |  |  | 8 per 10 s | 6 per 10 s |  | 0 | 0 |  |  | 0 per 10 s | 13.3 µM | 13.8 µM | 14.2 µM | 6.14 µM | Antiangiogenic activity to zebrafish embryos [8]: displayed antiangiogenic activity; Concentration with inhibitory effect on ISV formation (Figure 2) [8]: 4 µM; Concentration that caused the death of all zebrafish embryos ([4]; highest concentration tested): 8 µM; Inhibition of the migration of HUVEC [9]: remarkable inhibition; IC50 [7, 23]: 8.89 µM
7 | CC(C)=CCCC1(C)C=Cc2c(O)c3c(c(CC=C(C)C)c2O1)O[C@]12C(=C[C@@H]4C[C@H]1C(C)(C)O[C@@]2(C/C=C(\C)C(=O)O)C4=O)C3=O (stereo partly drawn) [Xanthone 8, isogambogic acid] | 6 per 10 s | 6.37 µM | 4.77 µM | 6/8 | 2.86 µM | 0.91 µM | 1.59 µM |  |  |  |  | 0 | 1/8 | 17 per 10 s | 13 per 10 s |  |  |  |  |  | 
8 | CC(C)=CCc1c2c(c(O)c3c1O[C@]14C(=C[C@@H]5C[C@H]1C(C)(C)O[C@@]4(CC=C(C)C)C5=O)C3=O)C=CC(C)(C)O2 [Xanthone 10, desoxymorellin] |  |  |  | 0 |  |  |  | 20 per 10 s | 17 per 10 s | 16 per 10 s | 0 | 0 | 0 |  |  | 16 per 10 s | 1 µM | 2.6 µM | 2.05 µM | 0.9 µM | IC50 [7, 23]: 1.2 µM
9 | CC(C)=CCC/C(C)=C/Cc1c(O)c2c(c3c1O[C@@H](C(C)(C)O)C3)O[C@]13C(=C[C@@H]4C[C@H]1C(C)(C)O[C@@]3(C/C=C(/C)C(=O)O)C4=O)C2=O [Xanthone 4, gambogenific acid] | 13 per 10 s | 10.2 µM | 7.58 µM | 0 | 11.3 µM | 2.48 µM | 4.49 µM |  |  |  |  | 0 | 0 | 21 per 10 s | 17 per 10 s |  |  |  |  |  | 
